The subject of series [1] is human colon cancer COLO-205 cells. Kind of series: Efficacy in xenograft model of human colon cancer. It is filed as in vivo, mice. As for the experimental part:
(§1) To evaluate the efficacy of tumor growth inhibition, the compound 8b was studied using human cancer mouse models. The models are prepared by subcutaneously or orthotopically implanting mice with human cancer cells. When the tumor size of the mice develops (e.g., reaches 100 mm^3), the mice are divided into groups for treatment with compound 8b (where different groups receiving the compound 8b may be administered different amounts of the compound 8b) or are provided no compound as a control. The mice are treated (e.g., orally administered a compound of the invention) for a period of time. During the course of the study, the tumor is measured and the weight of the mice is determined. After the treatment period, the mice are sacrificed shortly (e.g. 1 or 2 hours) after the final dose. Blood and tissue are collected for biochemical analysis.
To evaluate the efficacy of tumor growth inhibition, compound 8b was studied using a human colon cancer mouse model. […] Tumor volume and mouse body weight were monitored over the 20 day experiment. […]
(§2) The appropriate amount of compound 8b was sonicated in a PEG-400 solution (80% w/v in case of Example B6B; and 50% w/v in case of Example B6C) to completely dissolve the compound, followed by dropwise addition of the required amount of H2O. […] During the course of the study, the tumor was measured and the weight of the mice was determined. […]
Background: Xenograft models place foreign cells or tissue in a host animal.

The subject of series [2] is human breast cancer MCF7 cells. Kind of series: Efficacy in xenograft model of human breast cancer. Format: in vivo, mice. As for the experimental part:
as §1
To evaluate the efficacy of tumor growth inhibition, compound 8b was studied using a human breast cancer mouse model. […]
as §2

The target in the next series is T1, Abl(H396P) (Homo sapiens, UniProt P00519, H396P).
T1 construct: purchased Caliper LifeSciences (ProfilerPro Kinase Selectivity Assay Kits)
Kind of series: Caliper kinase profiling: Abl(H396P). It is filed as biochemical. The note with it: read-out: Average % Inh @ 1 μM.

The target of the next series is T2, ABL1(G250E) (Homo sapiens, UniProt P00519, G250E).
T2 construct: purchased Caliper LifeSciences (ProfilerPro Kinase Selectivity Assay Kits)
Kind of series: Caliper kinase profiling: ABL1(G250E). It is filed as biochemical. The settings on record: read-out: Average % Inh @ 1 μM.

For a further series, the target named is Fer (Homo sapiens, UniProt P16591). Kind of series: Caliper kinase profiling: Fer. It is filed as biochemical.
Fer, sequence (P16591 whole entry): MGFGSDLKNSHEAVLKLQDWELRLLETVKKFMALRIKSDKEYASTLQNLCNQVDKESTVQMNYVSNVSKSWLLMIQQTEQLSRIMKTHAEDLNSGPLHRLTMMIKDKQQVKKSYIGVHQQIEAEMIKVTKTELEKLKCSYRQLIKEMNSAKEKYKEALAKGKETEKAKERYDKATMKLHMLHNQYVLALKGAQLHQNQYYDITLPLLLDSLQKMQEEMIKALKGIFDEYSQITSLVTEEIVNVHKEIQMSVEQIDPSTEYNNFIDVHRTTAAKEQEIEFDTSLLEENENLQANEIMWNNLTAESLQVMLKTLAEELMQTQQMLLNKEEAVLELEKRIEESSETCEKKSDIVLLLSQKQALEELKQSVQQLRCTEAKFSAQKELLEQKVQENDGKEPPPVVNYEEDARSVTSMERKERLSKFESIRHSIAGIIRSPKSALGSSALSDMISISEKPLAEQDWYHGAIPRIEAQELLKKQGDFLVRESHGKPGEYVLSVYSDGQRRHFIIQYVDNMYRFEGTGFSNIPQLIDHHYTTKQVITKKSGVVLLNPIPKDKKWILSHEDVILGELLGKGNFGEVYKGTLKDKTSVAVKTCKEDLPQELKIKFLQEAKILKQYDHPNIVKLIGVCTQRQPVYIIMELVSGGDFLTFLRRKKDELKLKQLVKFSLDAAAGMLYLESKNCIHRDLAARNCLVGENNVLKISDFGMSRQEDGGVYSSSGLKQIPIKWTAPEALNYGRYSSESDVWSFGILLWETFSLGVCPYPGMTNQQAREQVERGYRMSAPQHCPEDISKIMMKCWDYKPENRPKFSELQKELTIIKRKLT
The next series has as its target FGFR2 (Homo sapiens, UniProt P21802). Kind of series: Caliper kinase profiling: FGFR2. Format: biochemical.
A further series concerns the target FGR (Homo sapiens, UniProt P09769). Kind of series: Caliper kinase profiling: FGR. It is filed as biochemical.
For the next series, the target named is FYN (Homo sapiens, UniProt P06241). Description: Caliper kinase profiling: FYN. It is filed as biochemical.
FYN, sequence (P06241 whole entry): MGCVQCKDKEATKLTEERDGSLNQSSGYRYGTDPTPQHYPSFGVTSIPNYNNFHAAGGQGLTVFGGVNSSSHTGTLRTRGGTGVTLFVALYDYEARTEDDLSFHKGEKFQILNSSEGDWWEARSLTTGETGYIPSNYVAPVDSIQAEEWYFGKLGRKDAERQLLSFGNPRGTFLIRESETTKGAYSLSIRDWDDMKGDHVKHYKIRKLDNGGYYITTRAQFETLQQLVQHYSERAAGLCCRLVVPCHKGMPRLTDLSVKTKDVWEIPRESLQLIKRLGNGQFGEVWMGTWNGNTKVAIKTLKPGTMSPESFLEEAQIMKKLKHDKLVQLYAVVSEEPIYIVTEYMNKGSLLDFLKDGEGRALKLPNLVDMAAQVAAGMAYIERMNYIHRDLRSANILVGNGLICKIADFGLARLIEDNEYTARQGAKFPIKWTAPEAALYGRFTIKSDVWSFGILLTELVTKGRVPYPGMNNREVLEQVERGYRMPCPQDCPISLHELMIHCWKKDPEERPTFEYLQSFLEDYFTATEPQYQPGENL
In a further series the target is Hck (Homo sapiens, UniProt P08631). Kind of series: Caliper kinase profiling: Hck. Format: biochemical.
The target of another series is KDR (Homo sapiens, UniProt P35968). Description: Caliper kinase profiling: KDR. Format: biochemical. The note with it: read-out: Average % Inh @ 1 μM.
A further series deals with LYN (Homo sapiens, UniProt P07948). Description: Caliper kinase profiling: LYN. It is filed as biochemical.
LYN, sequence (P07948 whole entry): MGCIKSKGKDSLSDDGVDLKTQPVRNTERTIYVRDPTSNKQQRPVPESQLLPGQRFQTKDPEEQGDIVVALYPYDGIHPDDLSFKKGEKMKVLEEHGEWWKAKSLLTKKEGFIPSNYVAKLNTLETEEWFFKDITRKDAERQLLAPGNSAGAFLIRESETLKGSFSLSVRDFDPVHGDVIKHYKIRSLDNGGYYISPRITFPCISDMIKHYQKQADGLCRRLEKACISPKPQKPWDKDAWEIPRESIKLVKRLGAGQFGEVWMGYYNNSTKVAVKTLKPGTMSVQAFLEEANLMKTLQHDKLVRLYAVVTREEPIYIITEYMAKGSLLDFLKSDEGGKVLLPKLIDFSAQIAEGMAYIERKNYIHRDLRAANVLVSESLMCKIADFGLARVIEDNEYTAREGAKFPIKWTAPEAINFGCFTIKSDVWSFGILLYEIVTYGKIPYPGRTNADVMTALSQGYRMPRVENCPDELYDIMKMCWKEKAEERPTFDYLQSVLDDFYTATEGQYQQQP
The next series addresses MET(M1250T) (Homo sapiens, UniProt P08581, M1250T). Kind of series: Caliper kinase profiling: MET(M1250T). Format: biochemical.
The target in a further series is T3, MST2 (Homo sapiens, UniProt Q13188).
T3 sequence (Q13188 1-491): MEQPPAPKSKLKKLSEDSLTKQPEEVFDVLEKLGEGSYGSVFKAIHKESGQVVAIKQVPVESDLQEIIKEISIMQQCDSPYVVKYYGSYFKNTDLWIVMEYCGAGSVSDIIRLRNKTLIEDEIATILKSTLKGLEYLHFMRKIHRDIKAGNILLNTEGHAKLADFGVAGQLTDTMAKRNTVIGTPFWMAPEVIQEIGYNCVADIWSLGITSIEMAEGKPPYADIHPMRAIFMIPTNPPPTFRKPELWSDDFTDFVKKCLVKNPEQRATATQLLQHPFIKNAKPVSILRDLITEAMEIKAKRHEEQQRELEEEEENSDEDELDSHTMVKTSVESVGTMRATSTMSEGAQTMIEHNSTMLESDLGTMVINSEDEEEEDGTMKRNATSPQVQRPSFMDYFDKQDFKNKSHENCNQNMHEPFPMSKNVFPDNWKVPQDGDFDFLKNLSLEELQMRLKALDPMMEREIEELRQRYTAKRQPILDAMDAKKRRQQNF
Kind of series: Caliper kinase profiling: MST2. Format: biochemical.

Another series deals with PAK5(PAK7) (Homo sapiens, UniProt Q9P286). Kind of series: Caliper kinase profiling: PAK5(PAK7). It is filed as biochemical. The settings on record: read-out: Average % Inh @ 1 μM.
For another series, the target named is Yes (Homo sapiens, UniProt P07947). Kind of series: Caliper kinase profiling: Yes. It is filed as biochemical.
Where [3] appears, read: 10 nM, read-out: Average % Inh @ 10 nM.
[4] abbreviates: 100 nM, read-out: Average % Inh @ 100 nM.
The mark [5] stands for this setting: 1 μM, read-out: Average % Inh @ 1 μM.

MET(M1250T), sequence (P08581 25-1390 M1250T): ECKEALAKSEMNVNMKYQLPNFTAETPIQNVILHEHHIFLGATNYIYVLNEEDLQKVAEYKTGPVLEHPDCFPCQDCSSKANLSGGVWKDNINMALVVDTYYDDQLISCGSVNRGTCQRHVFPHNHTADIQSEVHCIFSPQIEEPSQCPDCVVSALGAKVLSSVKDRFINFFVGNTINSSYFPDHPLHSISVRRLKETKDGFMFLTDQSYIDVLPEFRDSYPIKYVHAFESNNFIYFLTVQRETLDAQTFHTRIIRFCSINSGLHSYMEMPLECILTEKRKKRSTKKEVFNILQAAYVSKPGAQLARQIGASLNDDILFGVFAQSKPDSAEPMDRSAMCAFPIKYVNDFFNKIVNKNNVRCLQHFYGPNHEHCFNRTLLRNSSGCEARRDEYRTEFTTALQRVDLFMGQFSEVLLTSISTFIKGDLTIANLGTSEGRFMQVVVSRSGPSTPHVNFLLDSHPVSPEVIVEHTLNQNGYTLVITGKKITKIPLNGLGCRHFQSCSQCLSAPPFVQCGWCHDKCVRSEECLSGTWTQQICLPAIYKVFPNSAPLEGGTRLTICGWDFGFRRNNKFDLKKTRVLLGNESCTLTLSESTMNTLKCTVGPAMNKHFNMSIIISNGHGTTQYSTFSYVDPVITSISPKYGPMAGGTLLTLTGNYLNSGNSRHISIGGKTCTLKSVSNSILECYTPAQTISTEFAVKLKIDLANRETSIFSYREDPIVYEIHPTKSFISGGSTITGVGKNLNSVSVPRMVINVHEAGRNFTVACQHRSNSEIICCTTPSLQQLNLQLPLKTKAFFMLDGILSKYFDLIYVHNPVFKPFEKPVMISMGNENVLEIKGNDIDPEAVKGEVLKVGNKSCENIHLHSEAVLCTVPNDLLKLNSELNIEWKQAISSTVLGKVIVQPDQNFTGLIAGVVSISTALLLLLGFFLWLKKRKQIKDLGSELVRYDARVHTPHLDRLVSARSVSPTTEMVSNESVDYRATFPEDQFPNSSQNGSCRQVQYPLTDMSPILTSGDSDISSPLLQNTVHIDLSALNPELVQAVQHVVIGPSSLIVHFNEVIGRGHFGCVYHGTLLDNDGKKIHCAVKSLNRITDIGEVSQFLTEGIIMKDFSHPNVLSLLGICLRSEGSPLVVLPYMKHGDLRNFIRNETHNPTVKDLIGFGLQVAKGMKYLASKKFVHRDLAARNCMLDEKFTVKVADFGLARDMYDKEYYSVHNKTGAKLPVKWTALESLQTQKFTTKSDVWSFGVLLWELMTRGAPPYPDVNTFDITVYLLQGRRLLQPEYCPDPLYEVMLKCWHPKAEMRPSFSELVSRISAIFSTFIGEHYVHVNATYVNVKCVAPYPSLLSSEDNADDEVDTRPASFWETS
FGFR2, sequence (P21802 22-821): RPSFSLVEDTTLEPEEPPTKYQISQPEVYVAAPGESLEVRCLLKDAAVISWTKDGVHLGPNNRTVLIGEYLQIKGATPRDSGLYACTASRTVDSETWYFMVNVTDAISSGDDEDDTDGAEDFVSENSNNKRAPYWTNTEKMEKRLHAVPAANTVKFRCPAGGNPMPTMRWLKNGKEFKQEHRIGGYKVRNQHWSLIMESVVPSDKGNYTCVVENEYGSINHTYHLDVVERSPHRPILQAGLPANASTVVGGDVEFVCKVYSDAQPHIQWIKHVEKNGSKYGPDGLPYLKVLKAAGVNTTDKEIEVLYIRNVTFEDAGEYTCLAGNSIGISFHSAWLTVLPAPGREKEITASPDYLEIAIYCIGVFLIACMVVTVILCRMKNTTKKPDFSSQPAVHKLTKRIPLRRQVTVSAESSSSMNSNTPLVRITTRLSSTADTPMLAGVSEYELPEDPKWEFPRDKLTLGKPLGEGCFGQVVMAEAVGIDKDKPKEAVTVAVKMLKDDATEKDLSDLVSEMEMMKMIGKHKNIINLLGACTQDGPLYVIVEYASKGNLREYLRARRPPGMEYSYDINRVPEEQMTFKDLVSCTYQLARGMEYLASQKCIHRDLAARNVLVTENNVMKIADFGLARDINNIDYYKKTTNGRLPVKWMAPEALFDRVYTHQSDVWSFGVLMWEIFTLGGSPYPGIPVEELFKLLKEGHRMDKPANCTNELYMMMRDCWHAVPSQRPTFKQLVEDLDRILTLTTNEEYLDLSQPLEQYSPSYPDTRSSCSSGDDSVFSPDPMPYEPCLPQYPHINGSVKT
FGR, sequence (P09769 whole entry): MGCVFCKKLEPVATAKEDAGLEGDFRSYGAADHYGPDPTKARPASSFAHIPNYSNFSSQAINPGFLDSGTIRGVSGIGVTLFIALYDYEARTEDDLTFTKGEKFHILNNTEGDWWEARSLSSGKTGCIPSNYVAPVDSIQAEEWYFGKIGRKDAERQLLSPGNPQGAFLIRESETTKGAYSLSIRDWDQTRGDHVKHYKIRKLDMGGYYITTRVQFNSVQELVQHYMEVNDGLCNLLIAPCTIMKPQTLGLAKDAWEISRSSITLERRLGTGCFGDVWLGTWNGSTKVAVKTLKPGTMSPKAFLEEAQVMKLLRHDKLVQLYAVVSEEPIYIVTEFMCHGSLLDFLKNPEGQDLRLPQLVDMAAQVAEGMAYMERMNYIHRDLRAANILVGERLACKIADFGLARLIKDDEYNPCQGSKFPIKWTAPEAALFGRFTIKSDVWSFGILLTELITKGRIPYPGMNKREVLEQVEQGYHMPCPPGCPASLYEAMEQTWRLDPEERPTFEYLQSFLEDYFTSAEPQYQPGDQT
Procedure for KDR: The compound was tested at concentrations of 1.0×10^−8 and 1.0×10^−9 M in the RapidKinase192™ panel in duplicate. […] The screening was performed using the Caliper EZReader2, a 4-sipper LabChip, and ProfilerPro Kinase Selectivity Assay Kits 1 and 2. The assay measures the conversion of a fluorescent peptide substrate to a phosphorylated product. Briefly, the reaction mixture was introduced through a capillary sipper onto the microfluidic chip, where the substrate and product were electrophoretically separated and detected by laser-induced fluorescence. The time-dependent fluorescence signal indicates the extent of the reaction.

Consider `CC(C)c1cc(Nc2nc(N3CCCC3C(=O)Nc3ccc(F)nc3)nc3c2CCC3)n[nH]1` (single isomer, unassigned) [Compound 8b], for which the tumor burden entry in series [1] (COLO205 colon cancer model, nude mice, 1, 3, 10, 15 mg/kg oral, 20 day experiment (FIG. 1)) was “dose-dependently and significantly reduced tumor burden”; in series [2] (MCF7 breast cancer model, nude mice, 10 and 15 mg/kg/po, various schedules (FIG. 2)), “dose-dependently and significantly reduced tumor burden”. The “body weights of the mice” value in series [1] (COLO205 xenograft model (FIG. 3)) and in [2] (MCF7 xenograft model (FIG. 4)) was “dose-dependently reduced body weights” throughout.
`O=C(Nc1ccc(F)nc1)C1CCCN1c1nc2c(c(Nc3cc(C4CC4)[nH]n3)n1)CCC2` (single isomer, unassigned) [Compound 2b, 1-(4-(5-cyclopropyl-1H-pyrazol-3-ylamino)-6,7-dihydro-5H-cyclopenta[d]pyrimidin-2-yl)-N-(6-fluoropyridin-3-yl)pyrrolidine-2-carboxamide]: the inhibition at 1 µM is 40 to 59% at Abl(H396P); more than 60% at ABL1(G250E); more than 60% at Fer (setting [5]); more than 60% at FGFR2 (FGFR2, 1 μM, read-out: Average % Inh @ 1 μM); more than 60% on FGR (setting [5]); more than 60% at FYN (setting [5]). The inhibition at 1 µM on Hck (setting [5]) is more than 60%; at KDR, 40 to 59%; on LYN (setting [5]), more than 60%; on MET(M1250T) (MET(M1250T), 1 μM, read-out: Average % Inh @ 1 μM) it was more than 60%; on MST2 (MST2, 1 μM, read-out: Average % Inh @ 1 μM), more than 60%; on PAK5(PAK7), 40 to 59%. The inhibition at 1 µM on Yes (setting [5]) is more than 60%. Moreover, the inhibition at 0.01 µM on Fer (setting [3]) was less than 39%; on FGFR2 (FGFR2, 10 nM, read-out: Average % Inh @ 10 nM) it was less than 39%; on FGR (setting [3]) it was less than 39%; on FYN (setting [3]), less than 39%; on Hck (setting [3]), less than 39%; at LYN (setting [3]) it was less than 39%. Moreover, the inhibition at 0.01 µM was less than 39% on MET(M1250T) (MET M1250T, 10 nM, read-out: Average % Inh @ 10 nM); less than 39% on MST2 (MST2, 10 nM, read-out: Average % Inh @ 10 nM); less than 39% at Yes (setting [3]). Further, the inhibition at 0.1 µM at Fer (setting [4]) was more than 60%; on FGFR2 (FGFR2, 100 nM, read-out: Average % Inh @ 100 nM), less than 39%; on FGR (setting [4]), less than 39%; on FYN (setting [4]) it was more than 60%; at Hck (setting [4]) it was 40 to 59%; at LYN (setting [4]), 40 to 59%. In addition, the inhibition at 0.1 µM on MET(M1250T) (MET M1250T, 100 nM, read-out: Average % Inh @ 100 nM) was less than 39%; at MST2 (MST2, 100 nM, read-out: Average % Inh @ 100 nM), less than 39%; on Yes (setting [4]), 40 to 59%.
